# Data published in patent publication US10150757B2, “Quinazolinone derivatives as PARP inhibitors” (Janssen Pharmaceutica NV, priority 2004, dated 2018).
# Biological target: T1, TANK-2 enzyme (Homo sapiens, UniProt Q9H2K2)
# T1 construct: made in house
# T1 sequence (Q9H2K2 1-1166): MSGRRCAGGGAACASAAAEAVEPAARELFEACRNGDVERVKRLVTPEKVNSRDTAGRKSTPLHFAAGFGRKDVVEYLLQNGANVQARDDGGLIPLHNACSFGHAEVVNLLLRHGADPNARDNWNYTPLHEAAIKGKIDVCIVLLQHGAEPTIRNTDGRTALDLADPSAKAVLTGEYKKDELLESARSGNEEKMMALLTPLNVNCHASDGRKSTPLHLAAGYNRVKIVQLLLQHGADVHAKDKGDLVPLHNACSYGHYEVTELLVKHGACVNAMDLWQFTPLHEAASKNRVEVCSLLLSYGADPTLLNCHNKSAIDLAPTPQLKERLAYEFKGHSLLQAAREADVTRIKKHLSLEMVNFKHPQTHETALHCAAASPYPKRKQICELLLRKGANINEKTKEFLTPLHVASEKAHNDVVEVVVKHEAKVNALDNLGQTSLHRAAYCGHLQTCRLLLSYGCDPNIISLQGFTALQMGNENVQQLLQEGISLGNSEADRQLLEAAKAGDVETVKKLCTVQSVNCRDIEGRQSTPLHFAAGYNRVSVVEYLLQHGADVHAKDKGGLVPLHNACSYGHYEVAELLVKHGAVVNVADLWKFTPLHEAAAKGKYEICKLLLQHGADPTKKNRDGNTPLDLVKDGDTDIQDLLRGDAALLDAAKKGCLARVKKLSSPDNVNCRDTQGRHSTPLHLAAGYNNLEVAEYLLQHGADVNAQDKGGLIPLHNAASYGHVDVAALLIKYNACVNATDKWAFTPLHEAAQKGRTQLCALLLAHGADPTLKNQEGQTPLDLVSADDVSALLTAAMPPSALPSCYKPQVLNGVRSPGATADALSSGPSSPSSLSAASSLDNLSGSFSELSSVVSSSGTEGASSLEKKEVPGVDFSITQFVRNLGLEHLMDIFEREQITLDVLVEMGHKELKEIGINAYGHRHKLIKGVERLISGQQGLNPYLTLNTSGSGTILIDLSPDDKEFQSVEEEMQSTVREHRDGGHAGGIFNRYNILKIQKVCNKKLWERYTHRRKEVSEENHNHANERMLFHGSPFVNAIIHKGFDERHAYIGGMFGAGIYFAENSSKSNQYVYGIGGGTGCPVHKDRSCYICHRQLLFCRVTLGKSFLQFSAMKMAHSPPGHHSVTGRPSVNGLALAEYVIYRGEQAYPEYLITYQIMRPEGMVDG
# Assay: In vitro scintillation proximity assay (SPA) for TANK-2 inhibitory activity
# Type: biochemical
# Settings: auto-poly(ADP-ribosyl)ation; 96-well plate results if available, otherwise 384-well; read-out: in vitro SPA assay TANK-2 pIC50 (converted)
# Experimental: In Vitro Scintillation Proximity Assay (SPA) for TANK-2 Inhibitory Activity
# Compounds of the present invention were tested in an in vitro assay based on SPA technology with Ni Flash plates (96 or 384 well).
# In principle, the assay relies upon SPA technology for the detection of auto-poly(ADP-ribosyl)ation of TANK-2 protein using [^3H]-nicotinamide adenine dinucleotide ([^3H]-NAD^+) as ADP-ribosyl donor.
# A stock solution of [^3H]-NAD^+/NAD was made by adding 64.6 μl of [^3H]-NAD^+ (0.1 mCi/ml, supplier: Perkin Elmer) and 46.7 μl NAD-stock (10.7 mM, stored at −20° C., supplier Roche) to 1888.7 μl assay buffer (60 mM Tris/HCl, pH 7.4; 0.9 mM DTT; 6 mM MgCl2). The TANK-2 enzyme was produced as described in EP1238063. 60 μl of assay buffer, together with 1 μl of compound in DMSO, 20 μl of [^3H]-NAD^+/NAD and 20 μl of TANK-2 enzyme (final concentration 6 μg/ml) was added per well into a 96-well Ni-coated flash plate (Perkin Elmer). After incubation of the mixture for 120 min. at room temperature, the reaction was terminated by adding 60 μl of stop solution (42.6 mg NAD in 6 ml H2O). The plates were covered with a plate sealer and placed in a TopCountNXT™ (Packard) for scintillation counting. Values were expressed as counts per minute (cpm). For each experiment, controls (containing TANK-2 enzyme and DMSO without compound), a blank incubation (containing DMSO but no TANK-2 enzyme or compound) and samples (containing TANK-2 enzyme and compound dissolved in DMSO) were run in parallel. All compounds tested were dissolved and eventually further diluted in DMSO. In first instance, compounds were tested at a concentration of 10^−5M. […] In each test, the blank value was subtracted from both the control and the sample values. The control sample represented maximal TANK-2 enzyme activity. For each sample, the amount of cpm was expressed as a percentage of the mean cpm value of the controls. When appropriate, IC50-values (concentration of the drug, needed to reduce the TANK-2 enzyme activity to 50% of the control) were computed using linear interpolation between the experimental points just above and below the 50% level. Herein the effects of test compounds are expressed as pIC50 (the negative log value of the IC50-value). As reference compounds, 3-aminobenzamide and 4-amino-1,8-naphthalimide were included to validate the SPA assay. Herein the assay was described using 96-well plates. In the assay using 384-well plates the same final concentrations were used and volumes were adapted.
row,Compound,IC50
1,O=c1[nH]c(NCCN2CCN(c3n[nH]c4ccccc34)CC2)nc2ccc(Cl)cc12 [Compound 1],> 10 µM
2,O=c1[nH]c(NCCCN2CCC(O)(c3ccc(Cl)cc3)CC2)nc2ccccc12 [Compound 2],> 10 µM
3,CCc1cc2cc(CN3CCN(CCNc4nc5ccccc5c(=O)[nH]4)CC3)ccc2nc1OC [Compound 3],1.77 µM
4,CC1(C)Cc2c(N)c(Cl)cc(C(=O)NC3CCN(CCCNc4nc(O)c5ccccc5n4)CC3)c2O1 [Compound 4],> 10 µM
5,CC1(C)Cc2c(N)c(Cl)cc(C(=O)NC3CCN(CCCCNc4nc(O)c5ccccc5n4)CC3)c2O1 [Compound 5],> 10 µM
6,CO[C@@H]1CN(CCCNc2nc(O)c3ccccc3n2)CC[C@@H]1NC(=O)c1cc(Cl)c(N)c2c1OCCC2 [Compound 6],> 10 µM
7,Nc1c(Cl)cc(C(=O)OCC2CCN(CCNc3nc4ccccc4c(=O)[nH]3)CC2)c2c1OCCO2 [Compound 7],0.746 µM
8,CO[C@@H]1CN(CCCNc2nc(O)c3ccccc3n2)CCN1NC(=O)c1cc(Cl)c(N)c2c1OC(C)(C)C2 [Compound 8],> 10 µM
9,CO[C@H]1CN(CCCNc2nc3ccccc3c(=O)[nH]2)CC[C@H]1NC(=O)c1cc(Cl)cc2c1OC(C)(C)C2 [Compound 18],> 10 µM
10,O=c1[nH]c(NCCCN2CCC(c3c[nH]c4ccccc34)CC2)nc2ccccc12 [Compound 20],> 10 µM
11,O=c1[nH]c(NCCN2CCC(c3n[nH]c4cc(F)ccc34)CC2)nc2ccccc12 [Compound 21],> 10 µM
12,O=c1[nH]c(NCCCN2CCN(c3n[nH]c4ccccc34)CC2)nc2ccccc12 [Compound 22],8.45 µM
13,O=C(NC1CCN(CCCNc2nc3ccccc3c(=O)[nH]2)CC1)c1ccccc1 [Compound 23],> 10 µM
14,O=c1[nH]c(NCCCN2CCN(c3nsc4ccccc34)CC2)nc2ccccc12 [Compound 24],> 10 µM
15,O=c1[nH]c(NCCCN2CCC(c3n[nH]c4cc(F)ccc34)CC2)nc2ccccc12 [Compound 25],> 10 µM
16,O=c1[nH]c(NCCCN2CCC(c3noc4cc(F)ccc34)CC2)nc2ccccc12 [Compound 26],> 10 µM
17,O=c1[nH]c(NCCCN2CCN(c3n[nH]c4cc(F)ccc34)CC2)nc2ccccc12 [Compound 27],7.96 µM

row,Compound,IC50
1,CCCCn1cc(C2CCN(CCCNc3nc4ccccc4c(=O)[nH]3)CC2)c2ccccc21 [Compound 28],> 10 µM
2,O=c1[nH]c(NCCCN2CCC(n3c(=O)[nH]c4ccccc43)CC2)nc2ccccc12 [Compound 29],> 10 µM
3,O=c1[nH]c(NCCN2CCC(Nc3nc4ccccc4c(=O)[nH]3)CC2)nc2ccccc12 [Compound 30],0.794 µM
4,O=c1[nH]c(NCCN2CCC(c3n[nH]c4cc(F)ccc34)CC2)nc2cc(Cl)ccc12 [Compound 31],> 10 µM
5,O=c1[nH]c(NCCN2CCC(Nc3n[nH]c(=O)c4ccccc34)CC2)nc2ccccc12 [Compound 33],0.938 µM
6,O=c1[nH]c(NCCN2CCC(c3n[nH]c4cc(F)ccc34)CC2)nc2ccc(Cl)cc12 [Compound 36],> 10 µM
7,Cc1ccc2nc(NCCN3CCC(c4n[nH]c5cc(F)ccc45)CC3)[nH]c(=O)c2c1 [Compound 37],> 10 µM
8,O=c1[nH]c(NCCN2CCN(c3nc4ccccc4c(=O)[nH]3)CC2)nc2ccccc12 [Compound 38],0.537 µM
9,Cc1cccc2nc(NCCN3CCN(c4n[nH]c5ccccc45)CC3)[nH]c(=O)c12 [Compound 39],> 10 µM
10,O=c1nc(NCCCN2CCC(Nc3nccc4ccccc34)CC2)[nH]c2ccccc12 [Compound 40],> 10 µM
11,O=c1[nH]c(NCCN2CCN(c3n[nH]c4cc(F)ccc34)CC2)nc2ccccc12 [Compound 41],> 10 µM
12,O=c1[nH]c(NCCCN2CCC(Nc3cccc4ccccc34)CC2)nc2ccccc12 [Compound 42],> 10 µM
13,Cc1ccc2nc(NCCN3CCN(c4n[nH]c5ccccc45)CC3)[nH]c(=O)c2c1 [Compound 43],> 10 µM
14,O=c1[nH]c(NCCN2CCN(c3n[nH]c4ccccc34)CC2)nc2cc(Cl)ccc12 [Compound 44],> 10 µM
15,Nc1c(Cl)cc(C(=O)NC2CCN(CCCNc3nc(O)c4ccccc4n3)CC2)c2c1CCO2 [Compound 45],> 10 µM
16,O=C(c1ccc(F)cc1)C1CCN(CCNc2nc3ccccc3c(=O)[nH]2)CC1 [Compound 46],> 10 µM
